Like-named read-outs stand apart in the source and are kept apart here.
What was measured:
[1] = target: T1, human pancreatic chymotrypsin (Homo sapiens, UniProt P17538); test: Specificity assay, chymotrypsin; type: biochemical; conditions: read-out: Chymotrypsin activity in the specificity assays (IC50)
T1 construct: purchased Sigma, EMDbiosciences
Experimental: The specificities of compounds of the present disclosure were determined against a variety of serine proteases: human neutrophil elastase (HNE), porcine pancreatic elastase (PPE) and human pancreatic chymotrypsin and one cysteine protease: human liver cathepsin B. In all cases a 96-well plate format protocol using either colorimetric p-nitroaniline (pNA) substrate or fluorometric Amino-Methyl-Coumarin (AMC) specific for each enzyme was used as described previously (PCT Patent Application No. WO 00/09543) with some modifications to the serine protease assays. All enzymes were purchased from Sigma, EMDbiosciences while the substrates were from Bachem, Sigma and EMDbiosciences.
The pNA assay for Chymotrypsin included a 1 h enzyme-inhibitor pre-incubation at room temperature followed by addition of substrate and hydrolysis to ˜15% conversion as measured on a Spectramax Pro microplate reader. Compound concentrations varied from 100 to 0.4 μM depending on their potency. Cathepsin B, HNE, and PPE assays each was initiated by addition of substrate to enzyme-inhibitor pre-incubated for 10 min at room temperature and hydrolysis to 15% conversion as measured on cytofluor. […]
The percentage of inhibition was calculated using the formula: [1−((UVinh−UVblank)/(UVctl−UVblank))]×100 […]

[2] = system: HCV replicon (strain 1b) in HUH-7 cells; test: HCV replicon FRET assay; type: cell-based, Hepatitis C virus; conditions: Hepatitis C virus

T1 sequence (P17538 19-263): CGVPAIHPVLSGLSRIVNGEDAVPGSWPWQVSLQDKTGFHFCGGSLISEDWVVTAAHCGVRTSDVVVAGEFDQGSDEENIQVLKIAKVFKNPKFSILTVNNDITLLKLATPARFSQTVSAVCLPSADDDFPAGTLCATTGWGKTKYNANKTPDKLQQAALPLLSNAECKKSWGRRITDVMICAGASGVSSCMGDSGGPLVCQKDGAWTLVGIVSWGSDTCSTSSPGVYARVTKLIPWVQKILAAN

C=C[C@@H]1C[C@]1(NC(=O)[C@@H]1C[C@@H](Oc2nc(N(C)C)cc3cc(OC)ccc23)CN1C(=O)C(Nc1cc(C)cc(C)n1)C(C)(C)C)C(=O)NS(=O)(=O)C1CC1 (single isomer, unassigned) [Compound 18]
IC50 [1]: > 50000 nM | EC50 ([2]; Huh-7, read-out: EC50 in the replicon FRET assay, replicon FRET assay): 9 nM | EC50 ([2]; Huh-7, read-out: HCV Pro Replicon (EC50), HCV replicon cell assay, activity range class): 3 to 100 nM
